Assay results: article PMC6235261, “Deuterium isotope effects in drug pharmacokinetics II: Substrate-dependence of the reaction mechanism influences outcome for cytochrome P450 cleared drugs” (PLoS ONE, 2018)

Tests used:
CYP3A4 = target: T1, CYP3A4 (Homo sapiens, UniProt P08684); format: in vitro ADME; conditions: 1 μM, pH 7.4
T1 construct: host or cells: insect cells (membranes)
Description: (§1) Relative CYP activities were determined from the ratio of the depletion rate constant for each isoform relative to that for CYP3A4. […] Eight 100 μL aliquots each were removed over a period of 70 to 90 minutes and added to 100 μL of a 0.1 μM solution of an internal standard in methanol to quench the enzymatic reaction. The samples were filtered through a high protein-binding capacity filter membrane in a 96-well format. The filtrates were evaporated in a vacuum centrifuge to near dryness, diluted with 125 μL of water, and a 99 μL aliquot was analyzed by reversed phase chromatography/mass spectrometry using selected reaction monitoring. Rate constants were determined from the semi-logarithmic plots of the time versus ratio of the area under the peak for specific transitions of the various substrates and the internal standard. The intrinsic clearance isotope effect was determined from the ratio of the rate constants for the protio- and respective deuterio- forms.

CYP2C8 = target: T2, CYP2C8 (Homo sapiens, UniProt P10632); assay: Substrate depletion with recombinant CYP2C8; format: in vitro ADME; conditions: for As % of CYP3A4: recombinant CYP2C8, depletion rate constant relative to CYP3A4
T2 construct: host or cells: insect cells (membranes)
T2 sequence (P10632 1-490): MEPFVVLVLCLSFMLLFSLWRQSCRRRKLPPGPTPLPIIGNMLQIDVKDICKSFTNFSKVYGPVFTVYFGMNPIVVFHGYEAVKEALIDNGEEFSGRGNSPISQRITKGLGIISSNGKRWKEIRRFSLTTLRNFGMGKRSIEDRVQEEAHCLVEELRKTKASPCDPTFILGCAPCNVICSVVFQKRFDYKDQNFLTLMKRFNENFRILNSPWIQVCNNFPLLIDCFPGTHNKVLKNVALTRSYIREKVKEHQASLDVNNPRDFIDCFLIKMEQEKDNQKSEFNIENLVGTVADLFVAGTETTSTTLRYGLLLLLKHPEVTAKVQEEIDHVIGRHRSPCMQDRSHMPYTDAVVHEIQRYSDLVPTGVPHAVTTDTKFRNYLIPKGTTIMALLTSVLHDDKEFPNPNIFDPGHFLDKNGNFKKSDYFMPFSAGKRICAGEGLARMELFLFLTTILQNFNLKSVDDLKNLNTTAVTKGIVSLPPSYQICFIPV
Description: as §1

CYP2D6 = target: T3, CYP2D6 (Homo sapiens, UniProt P10635); assay: Substrate depletion with recombinant CYP2D6; format: in vitro ADME
T3 construct: host or cells: insect cells (membranes)
T3 sequence (P10635 whole entry): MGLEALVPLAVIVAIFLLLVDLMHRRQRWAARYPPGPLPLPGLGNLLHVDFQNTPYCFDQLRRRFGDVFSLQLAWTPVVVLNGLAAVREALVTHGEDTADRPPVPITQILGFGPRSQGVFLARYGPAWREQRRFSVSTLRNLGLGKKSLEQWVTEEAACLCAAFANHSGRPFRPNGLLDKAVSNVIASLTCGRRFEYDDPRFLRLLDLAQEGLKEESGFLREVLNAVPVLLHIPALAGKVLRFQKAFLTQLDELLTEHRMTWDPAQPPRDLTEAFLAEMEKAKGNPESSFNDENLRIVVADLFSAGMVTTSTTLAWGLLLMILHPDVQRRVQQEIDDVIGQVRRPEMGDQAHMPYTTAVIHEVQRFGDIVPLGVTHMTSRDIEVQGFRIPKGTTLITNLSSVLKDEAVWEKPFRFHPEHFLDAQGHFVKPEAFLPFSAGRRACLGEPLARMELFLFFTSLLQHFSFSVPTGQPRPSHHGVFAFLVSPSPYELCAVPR
Description: as §1

CYP1A2 = target: T4, CYP1A2 (Homo sapiens, UniProt P05177); assay: Substrate depletion with recombinant CYP1A2; format: in vitro ADME; conditions: for kobs: recombinant CYP1A2, substrate depletion at 1.0 μM, 10 pmol/mL rCYP, 37 °C
T4 construct: host or cells: insect cells (membranes)
T4 sequence (P05177 2-516 limits assumed): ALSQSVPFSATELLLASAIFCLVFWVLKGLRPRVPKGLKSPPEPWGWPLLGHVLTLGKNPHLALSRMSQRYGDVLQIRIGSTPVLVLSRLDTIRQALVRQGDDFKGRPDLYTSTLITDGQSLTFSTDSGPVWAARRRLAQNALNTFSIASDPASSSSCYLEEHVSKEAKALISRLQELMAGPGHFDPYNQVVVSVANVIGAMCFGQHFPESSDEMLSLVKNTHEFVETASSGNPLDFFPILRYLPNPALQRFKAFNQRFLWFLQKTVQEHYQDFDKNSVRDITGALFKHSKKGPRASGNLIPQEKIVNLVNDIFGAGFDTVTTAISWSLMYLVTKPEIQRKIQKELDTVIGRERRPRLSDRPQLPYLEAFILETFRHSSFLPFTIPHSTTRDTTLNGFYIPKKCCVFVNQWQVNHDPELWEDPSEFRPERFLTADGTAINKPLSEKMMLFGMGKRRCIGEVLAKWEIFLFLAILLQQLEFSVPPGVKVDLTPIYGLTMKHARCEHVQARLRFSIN
Description: as §1

CYP2C9 = target: T5, CYP2C9 (Homo sapiens, UniProt P11712); assay: Substrate depletion with recombinant CYP2C9; format: in vitro ADME
T5 construct: host or cells: insect cells (membranes)
T5 sequence (P11712 whole entry): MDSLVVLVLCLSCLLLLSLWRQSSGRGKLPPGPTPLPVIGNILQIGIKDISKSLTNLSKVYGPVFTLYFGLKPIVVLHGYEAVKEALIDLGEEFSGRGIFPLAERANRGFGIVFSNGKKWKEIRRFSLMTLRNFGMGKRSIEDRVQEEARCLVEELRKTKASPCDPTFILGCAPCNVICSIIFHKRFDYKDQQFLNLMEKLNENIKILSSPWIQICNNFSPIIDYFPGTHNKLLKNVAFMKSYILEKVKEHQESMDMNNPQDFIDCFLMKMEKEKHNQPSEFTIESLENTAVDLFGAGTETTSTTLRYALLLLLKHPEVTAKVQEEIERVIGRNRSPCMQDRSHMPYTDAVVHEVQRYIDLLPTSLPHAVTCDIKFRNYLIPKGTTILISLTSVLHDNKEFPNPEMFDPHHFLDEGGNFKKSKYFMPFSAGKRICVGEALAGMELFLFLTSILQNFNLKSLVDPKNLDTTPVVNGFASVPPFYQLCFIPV
Description: as §1

CYP2C19 = target: T6, CYP2C19 (Homo sapiens, UniProt P33261); assay: Substrate depletion with recombinant CYP2C19; format: in vitro ADME; conditions: for kobs: recombinant CYP2C19, substrate depletion at 1.0 μM, 10 pmol/mL rCYP, 37 °C
T6 construct: host or cells: insect cells (membranes)
T6 sequence (P33261 whole entry): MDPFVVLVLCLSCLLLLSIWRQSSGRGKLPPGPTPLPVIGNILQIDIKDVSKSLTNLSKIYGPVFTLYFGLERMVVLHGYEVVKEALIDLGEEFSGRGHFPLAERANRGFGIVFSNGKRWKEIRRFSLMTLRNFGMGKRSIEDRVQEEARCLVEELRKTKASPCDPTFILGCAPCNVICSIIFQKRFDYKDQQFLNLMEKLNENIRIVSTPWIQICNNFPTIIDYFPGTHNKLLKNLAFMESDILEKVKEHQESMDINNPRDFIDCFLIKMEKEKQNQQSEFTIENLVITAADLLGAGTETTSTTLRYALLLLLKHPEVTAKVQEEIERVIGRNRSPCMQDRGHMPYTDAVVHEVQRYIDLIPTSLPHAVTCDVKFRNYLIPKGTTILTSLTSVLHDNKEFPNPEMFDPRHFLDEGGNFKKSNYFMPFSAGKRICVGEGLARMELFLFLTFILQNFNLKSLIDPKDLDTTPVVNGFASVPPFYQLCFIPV
Description: as §1

[1] = Estimation of Km by the substrate depletion method; format: in vitro ADME; conditions: human, pH 7.4
Description: as §1

T1 sequence (P08684 2-503 limits assumed): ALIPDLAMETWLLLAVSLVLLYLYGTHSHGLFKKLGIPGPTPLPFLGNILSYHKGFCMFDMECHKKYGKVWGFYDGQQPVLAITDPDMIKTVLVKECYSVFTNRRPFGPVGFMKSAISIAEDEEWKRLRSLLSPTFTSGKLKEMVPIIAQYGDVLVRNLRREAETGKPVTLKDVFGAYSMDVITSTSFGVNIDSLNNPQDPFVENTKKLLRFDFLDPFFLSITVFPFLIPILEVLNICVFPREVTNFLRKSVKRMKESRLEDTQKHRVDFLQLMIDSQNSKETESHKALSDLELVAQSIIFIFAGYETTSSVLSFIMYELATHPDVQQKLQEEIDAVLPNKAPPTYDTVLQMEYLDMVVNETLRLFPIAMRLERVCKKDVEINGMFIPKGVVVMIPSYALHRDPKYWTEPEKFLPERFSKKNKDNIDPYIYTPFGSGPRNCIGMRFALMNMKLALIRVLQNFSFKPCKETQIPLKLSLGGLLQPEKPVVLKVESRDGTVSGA

kobs (CYP3A4) [min⁻¹]	As % of CYP3A4 (CYP3A4; recombinant enzyme) [%]	As % of CYP3A4 (CYP2C8) [%]	As % of CYP3A4 (CYP2D6; recombinant CYP2D6, depletion rate constant relative to CYP3A4) [%]	As % of CYP3A4 (CYP1A2; recombinant CYP1A2, depletion rate constant relative to CYP3A4) [%]	kobs (CYP1A2) [min⁻¹]	As % of CYP3A4 (CYP2C9; recombinant CYP2C9, depletion rate constant relative to CYP3A4) [%]	As % of CYP3A4 (CYP2C19; recombinant CYP2C19, depletion rate constant relative to CYP3A4) [%]	kobs (CYP2C19) [min⁻¹]	Km [1] [µM]	melting point [°C]	kobs (CYP2C8; recombinant CYP2C8, substrate depletion at 1.0 μM, 10 pmol/mL rCYP, 37 °C) [min⁻¹]	kobs (CYP2D6; recombinant CYP2D6, substrate depletion at 1.0 μM, 10 pmol/mL rCYP, 37 °C) [min⁻¹]	kobs (CYP2C9; recombinant CYP2C9, substrate depletion at 1.0 μM, 10 pmol/mL rCYP, 37 °C) [min⁻¹]	Structure (SMILES)
0.059	100	0	0	0	<0.001	0	24	0.014	> 5					COc1cccc(-n2nnc(C3CC3)c2C(=O)N(C)c2ccc(C#N)cc2)c1 [Compound 2a]
		0			0.009			0.071	> 5	132 to 133	0.001	0.015	0.050	CCNc1nc2c(c(C(N)=O)n1)CN(C(=O)CCc1ccc(OC(F)(F)F)cc1)CC2 [Compound 1a]
